Experimental data: US20260374814A1, “Synthetic Peptide And Construct” (TOAGOSEI CO., LTD, priority 2022, published 2026)
FAM = 5(6)-carboxyfluorescein

Tested on: NSC-34 cells
Test: Evaluation of Cell Membrane Permeability by Flow Cytometry (transfer of FAM construct into NSC-34 cells)
Assay type: cell-based
Conditions: NSC-34 cells (mouse motor neuron-like hybrid cell line); 20 μM in culture medium; 20 hours at 37 °C, 5% CO2; flow cytometer, detector FL2
Method: As the eukaryotic cells, NSC-34 cells (mouse motor neuron-like hybrid cell line) were used and the cell membrane permeability of the peptides 1 to 3 was analyzed. As a culture medium of the NSC-34 cell, 10% fetal bovine serum (FBS)-containing Dulbecco's modified Eagle's medium (DMEM (Cat No. 044-29765, manufactured by FUJIFILM Wako Pure Chemical Corporation)) was used. The samples 1 to 3 were each dissolved in dimethyl sulfoxide (DMSO) to prepare sample solutions 1 to 3 with a sample concentration of 4 mM. Then, the sample solutions were diluted in the culture medium to prepare 40 μM sample solutions 1 to 3. The aforementioned prepared sample solutions 1 to 3 were used in Examples 1 to 3, and the FAM solution was used in Reference Example 1.
The NSC-34 cell was suspended in the culture medium to prepare a cell suspension of 2×10^5 cells/mL. The cell suspension was added by 1 mL to a well of a commercially available six-hole (well) plate (manufactured by AGC TECHNO GLASS Co., Ltd.) so as to seed the NSC-34 cell to be 2×10^5 cells/well. Next, 1 mL of the 40 μM sample solution 1 was added to the well so that the sample concentration in the culture medium in the well became 20 μM. After that, the six-well plate was left at rest in a cell culture apparatus, and incubated for 20 hours at 37 °C under a 5% CO2 condition.
After the 20-hour incubation, the culture supernatant was removed from the well and the cells in the well were cleaned twice with 1 mL of PBS. Next, 100 μL of the 0.25% trypsin/EDTA solution was added to the well and the incubation was performed for three minutes at 37 °C. After the incubation, 900 μL of the culture medium was added to the well to deactivate the trypsin. Subsequently, the cell suspension in the well was transferred to a tube and the cells were collected. This tube was subjected to five-minute centrifugal separation at 4 °C under a condition of 210×g. […]
Regarding the obtained cells (cell pellet), the cell membrane permeability of the sample 1 was analyzed using a flow cytometer. […]
Using the aforementioned flow cytometer, gating based on forward scatter (FSC) and side scatter (SSC) was performed to set a gate about a cell group to be analyzed, and the fluorescence intensity was measured about the cell group in this gate. […] The fluorescence intensity was measured using a fluorescence detector FL2 of the flow cytometer (optimum detection wavelength around 543 nm) capable of detecting the fluorescence wavelength of FAM. Regarding this measurement result, the analysis was performed using commercially available analysis software “FlowJo” (manufactured by TreeStar) to obtain mean fluorescence intensity (MFI) of the cell group to be measured. […]

Row | Substance | MFI (mean fluorescence intensity)
1 | 5(6)-carboxyfluorescein [Reference Example 1, reference compound] | 10.9
2 | Ac-SASAG-FAM [Example 1] | 20.9
3 | Ac-SASASAG-FAM (Ac-SASASAG-{FAM}) [Example 2, construct: peptide 2 (SASASAG), N-terminus acetylated, with FAM bonded to the C-terminus amino acid residue] | 19.2
4 | Ac-SASASASAG-FAM (Ac-SASASASAG-{FAM}) [Example 3, construct: peptide 3 (…), N-terminus acetylated, with FAM bonded to the C-terminus amino acid residue] | 22.8
